Reference: patent publication US20060079453A1, “Hla binding peptides and their uses” (priority 2002, published 2006)
No end group written: not given here.

Assays:
Assay in all cases: biochemical
Type in all cases: binding
[1] = target: HLA-DR DRB1*0301 (DR3) (Homo sapiens, UniProt P01903+P01911, A100K/A102G/A103R/A169T/F55Y/I96L/K41T/L162R/M171V/P40S/Q125H/Q178H/Q39Y/R42S/S66N/T106N/T262R/W38E/Y61H)
[2] = target: HLA-DR DRB1*1501 (DR15) (Homo sapiens, UniProt P01903+P01911); conditions: DRBI *1501
[3] = target: HLA-DR DRB1*0901 (DR9) (Homo sapiens, UniProt P01903+P01911, A100R/A103E/D57H/D86V/F55Y/F60I/F76Y/I96F/K127E/L162R/M171V/P40D/Q125H/Q99R/R33Q/R42F/S133A/S66N/T210M/V115G/W38K/Y107V/Y59G/Y89S); conditions: DRB1 *0901
[4] = target: HLA-DR DRB1*0101 (DR1) (Homo sapiens, UniProt P01903+P01911, A100R/D57E/F55L/F60I/F76Y/I96L/L162R/M171V/P40L/Q125E/R42F/V115G/Y59C); conditions: DRB1 *0101
[5] = target: HLA-DR DRB5*0101 (DR51) (Homo sapiens, UniProt P01903+Q30154); conditions: DRB5 *0101
[6] = target: HLA-DR DRB1*0401 (DR4) (Homo sapiens, UniProt P01903+P01911, A100K/A169T/F76Y/I96L/K127E/L162R/M171V/N62H/P40V/Q125Y/R42H/S133A/S149N/S66Y/V115G/V209L/W38E); conditions: DRB1 *0401
[7] = target: HLA-DR DRB3*0101 (DR52) (Homo sapiens, UniProt P01903+P79483)
[8] = target: HLA-DR DRB1*0802 (DR8) (Homo sapiens, UniProt P01903+P01911, A100R/A103L/A169T/F76Y/H45Y/I96F/K41T/L162R/M171V/P40S/Q125H/Q178H/Q39Y/Q99D/R218S/R42G/S66Y/V115G/W38E)
[9] = target: HLA-DR DRB1*0701 (DR7) (Homo sapiens, UniProt P01903+P01911, A100R/A102G/A103Q/D57E/D86V/E43K/F76Y/K127E/L162R/M171V/P40G/Q125H/Q99D/R33Q/R42Y/R54Q/S133A/S66F/T210M/V115G/Y107V/Y59L/Y89S); conditions: DRB1 *0701
[10] = target: HLA-DR DRB1*1302 (DR13) (Homo sapiens, UniProt P01903+P01911, A100E/A169T/K41T/L162R/M171V/P40S/Q125H/Q178H/Q39Y/Q99D/R42S/S66N/T262R/V115G/W38E/Y61H); conditions: DRBI *1302
[11] = target: HLA-DR DRB4*0101 (DR53) (Homo sapiens, UniProt P01903+P13762, G164S); conditions: DRB4 *0101
[12] = target: HLA-DR DRB1*1101 (DR11) (Homo sapiens, UniProt P01903+P01911, A100R/A169T/A87E/I96F/K41T/L162R/M171V/P40S/Q125H/Q178H/Q39Y/Q99D/R42S/S66Y/T262R/V115G/W38E); conditions: DRB1 *1101
Sequence of HLA-DR DRB1*1101 (DR11) (P01903 26-254 limits assumed, other chains not shown): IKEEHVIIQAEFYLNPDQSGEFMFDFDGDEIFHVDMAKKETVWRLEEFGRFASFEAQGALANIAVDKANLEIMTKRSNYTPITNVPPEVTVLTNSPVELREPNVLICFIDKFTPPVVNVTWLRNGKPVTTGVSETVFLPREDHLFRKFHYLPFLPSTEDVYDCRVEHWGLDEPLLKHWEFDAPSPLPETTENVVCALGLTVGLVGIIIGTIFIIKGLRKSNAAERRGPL

Sequence of HLA-DR DRB1*1302 (DR13) (P01903 26-254 limits assumed, other chains not shown): as above
Sequence of HLA-DR DRB1*0301 (DR3) (P01903 26-254 limits assumed, other chains not shown): as above

| Compound | IC50 [1] [µM] | IC50 [2] [µM] | IC50 [3] [µM] | IC50 [4] [nM] | IC50 [5] [µM] | IC50 [6] [µM] | IC50 [7] [µM] | IC50 [8] [µM] | IC50 [9] [nM] | IC50 [10] [nM] | IC50 [11] [nM] | IC50 [12] [µM] |
| --- | --- | --- | --- | --- | --- | --- | --- | --- | --- | --- | --- | --- |
| CSCC[C@H](NC(=O)CNC(=O)CNC(=O)[C@H](CCCNC(=N)N)NC(=O)[C@@H](NC(=O)[C@H](CCC(N)=O)NC(=O)[C@H](C)NC(=O)[C@@H](NC(=O)[C@@H](NC(=O)[C@H](CC(C)C)NC(=O)[C@H](Cc1c[nH]cn1)NC(=O)[C@H](Cc1ccc(O)cc1)NC(=O)[C@H](CCCCN)NC(=O)[C@H](Cc1ccccc1)NC(=O)[C@@H](N)CCSC)[C@@H](C)O)C(C)C)C(C)C)C(=O)O | 29 | 1.2 | 0.266 | 16 | 0.0058 | 0.018 | 3.65 | 0.07 | 72 | 1620 |  |  |
| CC[C@H](C)[C@H](NC(=O)[C@H](CO)NC(=O)[C@H](CO)NC(=O)[C@H](CC(=O)O)NC(=O)[C@H](C)NC(=O)[C@H](CC(N)=O)NC(=O)[C@@H](NC(=O)[C@H](Cc1ccc(O)cc1)NC(=O)[C@H](C)NC(=O)[C@@H](NC(=O)CNC(=O)[C@H](CCCNC(=N)N)NC(=O)[C@@H](N)CCC(=O)O)C(C)C)[C@@H](C)CC)C(=O)N[C@@H](CCC(=O)O)C(=O)NCC(=O)O |  | 30.3 | 25.5 | 2440 | ≥ 200 | 6.76 | 6.85 | > 163 | 34000 | 3690 | 87 | > 50 |
| SLSLGFLFLLFFWLD |  | 11.4 | 24.6 | 11400 | 66.7 | 4.71 | 3.71 | > 123 | 22700 | 639 | > 11000 | 100 |
| CC[C@H](C)[C@H](NC(=O)[C@H](CS)NC(=O)[C@H](Cc1c[nH]cn1)NC(=O)[C@H](C)NC(=O)[C@H](C)NC(=O)[C@@H](NC(=O)[C@H](CC(C)C)NC(=O)[C@@H](NC(=O)[C@H](Cc1c[nH]c2ccccc12)NC(=O)[C@@H](N)CCC(N)=O)C(C)C)[C@@H](C)O)C(=O)N[C@@H](CCCNC(=N)N)C(=O)N[C@@H](CC(N)=O)C(=O)N[C@@H](CCCCN)C(=O)N[C@@H](CO)C(=O)N[C@H](C(=O)O)C(C)C |  | 13.6 | 0.967 | 50 | 0.035 | 19.4 | 7.34 | 2.6 | 214 | 2060 | 3800 | 2.17 |
| CC[C@H](C)[C@H](NC(=O)[C@@H]1CCCN1C(=O)[C@H](CCC(N)=O)NC(=O)[C@@H](N)Cc1c[nH]c2ccccc12)C(=O)N1CCC[C@H]1C(=O)N[C@H](C(=O)N[C@@H](Cc1c[nH]cn1)C(=O)N[C@H](C(=O)N[C@H](C(=O)N1CCC[C@H]1C(=O)N[C@@H](CC(C)C)C(=O)N[C@@H](CO)C(=O)N[C@@H](CCC(=O)O)C(=O)N[C@@H](CC(=O)O)C(=O)N[C@@H](CCC(N)=O)C(=O)O)C(C)C)[C@@H](C)O)C(C)C |  | > 45.5 | 17.5 | 6390 | > 100 | > 26.7 | > 8.83 | > 81.7 | 159 | 2690 | 1230 | > 66.7 |
| KSRLQGGVLVNEILN |  | > 30.3 | 5.52 | 362 | > 100 | > 26.7 | > 15 | > 81.7 | 2840 | 318 | 713 | > 66.7 |
| CC(C)C[C@H](NC(=O)CNC(=O)[C@H](CC(N)=O)NC(=O)[C@@H](N)Cc1ccc(O)cc1)C(=O)N[C@@H](CC(C)C)C(=O)N1CCC[C@H]1C(=O)N1CCC[C@H]1C(=O)N[C@@H](Cc1ccc(O)cc1)C(=O)N[C@@H](C)C(=O)N[C@@H](CO)C(=O)N[C@@H](CS)C(=O)N[C@@H](Cc1c[nH]cn1)C(=O)N[C@@H](CC(C)C)C(=O)N[C@H](C(=O)N[C@@H](CCC(=O)O)C(=O)O)[C@@H](C)O |  | 0.252 | 8.02 | 42 | ≥ 100 | 6.19 | > 15 | 14 | > 83300 | 11700 | > 10900 | 5.3 |
